Assay: Example 5: pilot device, degradation of four pesticides (FIG. 6)
Format: physicochemical
Details: initial boscalid 250, thiacloprid 100, fludioxonil 100, pyraclostrobin 125 μg/l; initial hydrogen peroxide 2 μg/l; 6 m^3/h, five lamps on
From the text: A semi-industrial pilot device in accordance with one aspect of the invention comprises a tank for recirculating water to be treated of a volume of 1000 l, a circulation pump ensuring a circulation flow of the water to be treated in a sanitising device with a flow rate between 4 m^3 to 8 m^3/h. The sanitising device comprises a photolysis chamber comprising an inlet for water from the recirculation tank and an outlet for sanitised water directed to the recirculation tank. The photolysis chamber is formed of a rigid tubular envelope, of which the external wall is opaque to light and forming an inner space suitable for receiving five fluorescent tubes with a longitudinal axis extending in parallel with the longitudinal axis of the rigid tubular envelope. The inner volume of the decontamination reactor is in the order of […].
The five fluorescent tubes are tubes of 200 W emitting light at a wavelength of 254 nm and arranged longitudinally in the tubular envelope at the five points of a regular pentagon and in contact with the water to be treated flowing in the photolysis chamber. In this configuration of the sanitising device, the water to be sanitised flowing in contact with the five fluorescent tubes is subjected to substantially homogeneous illumination in the order of 500 mJ/cm^2 for a circulation flow rate of water to be sanitised in the order of 6 m^3/h. The semi-industrial pilot device also comprises a tank for storing an aqueous solution of hydrogen peroxide (H2O2) provided with a pump for distributing said solution in the circulation flow of water to be sanitised issuing into the circuit of water to be sanitised upstream of and in proximity to the photolysis chamber. The concentration of the hydrogen peroxide in the aqueous solution of hydrogen peroxide is between 2 m g/l and 13 mg/l. The set-point flow rate of the pump for distributing solution of H2O2 is kept at 4 l/h.
A study was carried out in a semi-industrial pilot device as described above on the degradation of boscalid, thiacloprid, fludioxonil and pyraclostrobin. […]

SMILES | degraded within 1 hour
N#Cc1c[nH]cc1-c1cccc2c1OC(F)(F)O2 [fludioxonil] | 90%
COC(=O)N(OC)c1ccccc1COc1ccn(-c2ccc(Cl)cc2)n1 [pyraclostrobin] | 85%
N#C/N=C1\SCCN1Cc1ccc(Cl)nc1 [thiacloprid] | more than 95%

Reference: patent US10919785B2, “Hydraulic conveyor of floating objects provided with a device for sanitising conveying composition, plant provided with such a conveyor and sanitising method” (MAF AGROBOTIC, priority 2016, dated 2021)
